Source: patent publication US20250027041A1, “COMPOSITION FOR INDUCING TRANSDIFFERENTIATION AND STEM CELLS TREATED THEREWITH” (YJ CERAPEUTICS INC., priority 2021, published 2025)

Key:
UCB-MSCs = test: Tuj1 immunochemical assay, direct conversion of UCB-MSCs into ciNSC5; format: cell-based, human; details: 30 μM, 5 days
Protocol: Immunochemical assay was performed to confirm whether UCB-MSCs were transdifferentiated into ciNSC5, Tuj1-positive neural progenitor cells, by the compounds of the present invention, YJ101, YJ102, and YJ103. Specifically, UCB-MSCs were dispensed at 2.1×10^4 cells/well in a 12-well plate containing an 18 mm cover glass (a DMSO control group was dispensed at 3.5×10^3 cells/well). […] The culture medium was removed, washed with PBS, and then fixed with 4% paraformaldehyde at room temperature for 10 minutes. After washed three times with PBS, the cells were permeabilized with PBS-T containing 0.5% Triton X-100 for 10 minutes, washed with PBS-T three times for 10 minutes each, and then blocked with a blocking solution (PBS-T containing 5% BSA and 5% goat serum) for 1 hour. Thereafter, the cells were treated with anti-Tuj1 antibody (Cat. 801201, BioLegend) diluted 1/5000 in a blocking solution and incubated at 4° C. overnight. The next day, the cells were washed 10 times for 10 minutes each with PBS-T, and then treated with anti-mouse IgG-FITC diluted 1/500 in a blocking solution, and incubated for 1 hour in dark conditions. Next, the cells were washed 10 times for 10 minutes each with PBS-T, mounted with a mounting solution containing DAPI, and then observed with a confocal microscope.

[1] = test system: HES1, Sox2 and OCT4 gene promoters (CtBP1, CtBP1-LSD1 complex); test: ChIP assay, target genes of CtBP1-YJ102; format: cell-based, human; details: YJ102, 2 days, UCB-MSC
Protocol: To identify a target gene of CtBP1-YJ102 in human UCB-MSC, chromatin immunoprecipitation (ChIP) assay was performed. Specifically, 2×10^6 human UCB-MSCs were dispensed into a 100 mm culture dish, treated with 10 μl of YJ102 (30 mM) or DMSO (control) the next day, and incubated for 2 days. For cross-linking and DNA sharing, the cells were added with formaldehyde to be 1% to the culture dish in which UCB-MSCs were incubated and incubated at 37° C. for 10 minutes to be fixed. The culture medium was removed and washed twice with PBS containing a protease inhibitor to collect the cells. The cells were centrifuged at 3000 rpm at 4° C. for 5 minutes to remove the supernatant, and the cells were added with an SDS lysis buffer containing a protease inhibitor, incubated on ice for 10 minutes, and lysed by ultrasound. The cells were centrifuged at 13,000 rpm at 4° C. for 10 minutes, the supernatant was transferred to a new microcentrifuge tube, and added with 1/10 volume of ChIP Dilution Buffer. Thereafter, DNA was purified and subjected to agarose gel electrophoresis to confirm that the DNA was shared at 200 to 1000 bp. In addition, for chromatin immunoprecipitation, the Protein G agarose slurry was washed with PBS, blocked with 1 ml of 1% BSA, and then washed with PBS, added with a cell lysate lysed by ultrasound and primary antibodies included anti-CtBP1 antibody (Cat. 07-306, Millipore), anti-LSD1 antibody (Cat. A1156, Abclonal), and Normal rabbit IgG (Cat. 12-370, Merck Millipore) (control group) at 1 μg each, and then incubated using a rotator overnight at 4° C. The next day, the supernatant was removed by centrifugation, and DNA-antibody-agarose beads were washed once with Low Salt Immune Complex Wash Buffer; High Salt Immune Complex Wash Buffer; and LiCl Immune Complex Wash Buffer in sequence, and then washed twice with 1×TE. The DNA-antibody-agarose beads were added with 250 μl of elution buffer (1% SDS, 0.1M NaHCO3), incubated at room temperature for 15 minutes using a rotator, and centrifuged, and the supernatant was transferred to a new microcentrifuge tube. The elution process was repeated one more time and the eluate was mixed. The eluate was added with 20 μl of 5 M NaCl, heated at 65° C. for 4 hours, and then added with 10 μl of 0.5 M EDTA, 20 μl of 1 M Tris-HCl (pH 6.5), and 2 μl of proteinase K (10 mg/ml) and incubated at 45° C. for 1 hour. Phenol/chloroform extraction and ethanol precipitation were performed, the DNA pellet was resuspended in DW, and then real-time quantitative PCR was performed using primers shown in Table 2 below.

human UCB-MSCs = test: Tuj1 immunochemical assay with CtBP inhibitors; format: cell-based; details: 30 μM, 5 days
Protocol: To determine CtBP1-mediated ciNSC5 differentiation by YJ102 in human UCB-MSCs, a CTBP1 mechanism by treatment with NSC95397 or 4-methylthio-2-oxobutanoate (MTOB) was analyzed by immunochemical assay. Specifically, UCB-MSCs were dispensed at 2.1×10^4 cells/well in a 12-well plate containing an 18 mm cover glass (circular) (a DMSO control group was dispensed at 3.5×10^3 cells/well). […] The culture medium was removed, washed with PBS, and fixed with 4% paraformaldehyde at room temperature for 10 minutes. After washed three times with PBS, the cells were permeabilized with PBS-T containing 0.5% Triton X-100 for 10 minutes, washed with PBS-T three times for 10 minutes each, and then blocked with a blocking solution (PBS-T containing 5% BSA and 5% goat serum) for 1 hour. Thereafter, the cells were treated with anti-Tuj1 antibody (Cat. 801201, BioLegend) diluted 1/5000 in a blocking solution and incubated at 4° C. overnight. The next day, the cells were washed 10 times for 10 minutes each with PBS-T, and then treated with anti-mouse IgG-cy3 (Cat. 111-165-003, Jackson ImmunoResearch) diluted 1/2000 in a blocking solution, and incubated for 1 hour in dark conditions. Next, the cells were washed 10 times for 10 minutes each with PBS-T, mounted with a mounting solution containing DAPI, and then observed with a confocal microscope.

CtBP1-LSD1 complex binding to Sox2 gene promoter [1]: bound to a Sox2 gene promoter
CtBP1 binding to HES1 gene promoter [1]: increased
amount of CtBP1-LSD1 complex binding to OCT4 gene promoter [1]: increased
SMILES: CCc1ccc(N(C(=O)COC)c2nc3cc(Cl)ccc3o2)cc1 [YJ102]
direct conversion from UCB-MSCs to ciNSC5 (UCB-MSCs): induced direct conversion
expression of Tuj1 (UCB-MSCs; UCB-MSC): increased
HES1 expression [1]: decrease HES1 expression
OCT4 expression [1]: induce the expression of OCT4
Sox2 expression [1]: increase Sox2 expression
differentiation of UCB-MSCs into ciNSC5 through CtBP1 regulation (human UCB-MSCs): differentiated UCB-MSCs into ciNSC5
